Experimental data as given in ChEMBL document CHEMBL1201862, “PubChem BioAssay data set” (2004).
Activity calls are given as the source filed them.

Experiments:
[1] = target: Genome polyprotein (dengue virus type 2, UniProt P29990); experiment: flavivirus cap methylation enzyme inhibition – biochemical, confirmation dose response, primary screen (AID 588689); assay type: functional
[2] = target: T1, Replicative DNA helicase DnaB (Mycobacterium tuberculosis, UniProt P9WMR3); experiment: DnaB intein splicing inhibitors, dose response, biochemical, cell-free fluorescence (AID 449749); assay type: functional
T1 sequence (P9WMR3 whole entry): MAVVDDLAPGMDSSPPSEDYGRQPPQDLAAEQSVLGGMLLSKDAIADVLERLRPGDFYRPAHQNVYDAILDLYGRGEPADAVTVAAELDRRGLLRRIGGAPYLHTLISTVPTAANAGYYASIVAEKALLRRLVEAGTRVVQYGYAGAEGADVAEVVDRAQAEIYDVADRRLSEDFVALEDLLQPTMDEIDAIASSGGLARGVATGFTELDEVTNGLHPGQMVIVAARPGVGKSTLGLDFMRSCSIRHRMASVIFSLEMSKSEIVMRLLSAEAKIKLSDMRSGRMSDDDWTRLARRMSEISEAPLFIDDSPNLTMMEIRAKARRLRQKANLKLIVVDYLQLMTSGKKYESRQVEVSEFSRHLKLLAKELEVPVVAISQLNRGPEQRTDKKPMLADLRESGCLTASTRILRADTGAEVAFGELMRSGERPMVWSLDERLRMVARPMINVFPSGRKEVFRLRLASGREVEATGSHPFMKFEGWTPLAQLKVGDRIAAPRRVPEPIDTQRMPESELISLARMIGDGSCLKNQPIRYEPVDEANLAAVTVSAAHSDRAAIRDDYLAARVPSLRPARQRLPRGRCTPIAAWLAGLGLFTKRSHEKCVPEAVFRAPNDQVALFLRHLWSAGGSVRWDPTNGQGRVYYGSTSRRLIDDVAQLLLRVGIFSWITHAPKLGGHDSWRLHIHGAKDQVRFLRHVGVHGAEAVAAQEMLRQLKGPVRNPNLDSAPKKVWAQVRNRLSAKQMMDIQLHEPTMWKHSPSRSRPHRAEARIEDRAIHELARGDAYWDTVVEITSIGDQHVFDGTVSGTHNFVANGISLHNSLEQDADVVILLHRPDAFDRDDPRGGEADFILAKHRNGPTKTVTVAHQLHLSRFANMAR

[3] = target: Hepatocyte nuclear factor 4-alpha (Homo sapiens, UniProt P41235); assay type: functional, cell-based;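 also: biochemical luminescence-based dose-response counterscreen measuring inhibition of HNF4 dimerization, run alongside a screen for blockers of ABHD5–perilipin-5 interaction; split luciferase complementation of HNF4 fusion proteins in cell lysate measuring dimerization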
Chain of Hepatocyte nuclear factor 4-alpha (P41235 whole entry, the tested form may be a part): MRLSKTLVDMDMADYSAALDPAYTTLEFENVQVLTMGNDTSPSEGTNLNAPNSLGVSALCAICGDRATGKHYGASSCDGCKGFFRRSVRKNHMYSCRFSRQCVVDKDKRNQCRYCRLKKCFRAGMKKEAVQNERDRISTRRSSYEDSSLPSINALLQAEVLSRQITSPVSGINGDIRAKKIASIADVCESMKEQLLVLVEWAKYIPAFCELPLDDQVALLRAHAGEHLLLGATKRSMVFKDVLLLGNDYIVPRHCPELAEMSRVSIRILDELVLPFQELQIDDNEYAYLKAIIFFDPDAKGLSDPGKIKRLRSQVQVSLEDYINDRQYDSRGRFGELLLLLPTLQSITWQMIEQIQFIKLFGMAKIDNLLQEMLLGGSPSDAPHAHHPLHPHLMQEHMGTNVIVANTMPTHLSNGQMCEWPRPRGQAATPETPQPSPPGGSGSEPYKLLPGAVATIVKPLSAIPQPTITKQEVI

[4] = target: T2, Protein RecA (Mycobacterium tuberculosis, UniProt P9WHJ3); experiment: Fluorescence Cell-Free Homogeneous Dose Retest to Identify Inhibitors of RecA-Intein Splicing Activity. [Related pubchem assays (depositor defined):AID2097, AID2223, AID489010, AID492950]; assay type: functional
T2 sequence (P9WHJ3 whole entry): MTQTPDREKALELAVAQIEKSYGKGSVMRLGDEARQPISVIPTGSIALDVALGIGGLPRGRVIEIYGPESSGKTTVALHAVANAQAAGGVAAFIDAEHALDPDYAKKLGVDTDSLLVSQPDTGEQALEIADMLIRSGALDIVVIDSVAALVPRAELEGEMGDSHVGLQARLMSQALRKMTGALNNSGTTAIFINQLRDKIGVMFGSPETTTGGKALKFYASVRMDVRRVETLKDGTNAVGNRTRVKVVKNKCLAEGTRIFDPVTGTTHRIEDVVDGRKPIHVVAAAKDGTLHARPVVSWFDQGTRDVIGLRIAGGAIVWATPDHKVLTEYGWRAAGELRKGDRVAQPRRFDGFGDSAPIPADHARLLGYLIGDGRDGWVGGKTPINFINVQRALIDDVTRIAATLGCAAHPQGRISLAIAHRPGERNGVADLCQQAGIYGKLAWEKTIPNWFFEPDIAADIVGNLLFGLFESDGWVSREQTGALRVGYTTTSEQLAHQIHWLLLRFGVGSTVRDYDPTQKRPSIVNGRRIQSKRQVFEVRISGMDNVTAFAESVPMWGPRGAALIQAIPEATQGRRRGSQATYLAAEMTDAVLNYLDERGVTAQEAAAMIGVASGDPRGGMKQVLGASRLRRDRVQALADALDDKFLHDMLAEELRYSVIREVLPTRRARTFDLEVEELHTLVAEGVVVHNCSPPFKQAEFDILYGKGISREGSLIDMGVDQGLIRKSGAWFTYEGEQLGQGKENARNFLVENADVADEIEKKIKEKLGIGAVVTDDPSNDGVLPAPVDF

[5] = reduction of Shn3 3'UTR-driven luciferase in osteoblasts – cell-based, Clone20 osteoblasts, firefly luciferase, cherry-picked, dose response (AID 624132); assay type: functional;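 also: firefly luciferase luminescence from reporter carrying the Shn3 3'UTR in osteoblasts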
[6] = target: T3, Bcl-2-related protein A1 (Mus musculus, UniProt Q07440); assay type: functional;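 also: confirmatory dose–response counterscreen on Bfl-1, used to check hits from a UBC13 polyubiquitin inhibitor campaign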
T3 sequence (Q07440 whole entry): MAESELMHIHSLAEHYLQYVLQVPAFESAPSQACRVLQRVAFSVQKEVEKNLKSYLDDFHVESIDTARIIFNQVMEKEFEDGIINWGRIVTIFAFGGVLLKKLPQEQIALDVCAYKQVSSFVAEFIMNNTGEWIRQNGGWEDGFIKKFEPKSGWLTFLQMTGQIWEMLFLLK

[7] = Intein inhibitors as potential Tuberculosis drugs, a cytotoxicity screen. [Related pubchem assays (depositor defined):AID2221, AID2223, AID434968, AID435010, AID449749, AID449750, AID489010]; assay type: functional
[8] = test system: Vero; experiment: viability of Vero cells under compound – cytotoxicity control for flavivirus capping enzyme inhibitors (AID 588742); assay type: functional; settings: Chlorocebus sabaeus
[9] = target: T4, Ubiquitin-conjugating enzyme E2 N (Homo sapiens, UniProt P61088); assay type: functional
T4 sequence (P61088 whole entry): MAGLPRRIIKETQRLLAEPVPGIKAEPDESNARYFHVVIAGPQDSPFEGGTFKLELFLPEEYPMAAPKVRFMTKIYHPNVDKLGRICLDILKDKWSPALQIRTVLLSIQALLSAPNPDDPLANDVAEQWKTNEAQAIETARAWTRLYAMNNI

[10] = non-specific 3'UTR reporter inhibition in Clone20-Shn3RL – cell-based, Renilla luciferase, cherry-picked, counter-screen for Shn3 inhibitor project, dose response (AID 624133); assay type: functional
[11] = target: T4, Ubiquitin-conjugating enzyme E2 N; assay type: functional; remark: listed apart in the source
[12] = target: T5, Coagulation factor XII (Homo sapiens, UniProt P00748); experiment: Factor XIIa Dose Response Confirmation from Single Well HTS. [Related pubchem assays (depositor defined):AID701]; assay type: functional
T5 sequence (P00748 whole entry): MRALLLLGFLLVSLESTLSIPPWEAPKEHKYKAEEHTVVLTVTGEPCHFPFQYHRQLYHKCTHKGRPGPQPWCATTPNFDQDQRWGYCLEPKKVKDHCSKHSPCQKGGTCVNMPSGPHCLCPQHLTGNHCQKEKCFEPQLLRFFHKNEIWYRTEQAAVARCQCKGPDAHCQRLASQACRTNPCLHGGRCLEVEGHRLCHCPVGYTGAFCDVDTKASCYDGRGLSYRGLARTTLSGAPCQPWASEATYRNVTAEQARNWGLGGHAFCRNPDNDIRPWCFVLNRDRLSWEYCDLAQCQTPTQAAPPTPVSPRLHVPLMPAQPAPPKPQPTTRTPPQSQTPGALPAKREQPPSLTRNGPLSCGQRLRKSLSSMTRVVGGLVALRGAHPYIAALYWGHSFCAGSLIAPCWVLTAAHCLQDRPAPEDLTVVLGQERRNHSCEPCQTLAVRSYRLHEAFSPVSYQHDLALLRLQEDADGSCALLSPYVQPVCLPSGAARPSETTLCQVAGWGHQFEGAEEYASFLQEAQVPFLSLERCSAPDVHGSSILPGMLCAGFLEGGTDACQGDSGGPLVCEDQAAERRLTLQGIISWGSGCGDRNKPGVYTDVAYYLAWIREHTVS

[13] = target: Voltage-dependent T-type calcium channel subunit alpha-1H (Homo sapiens, UniProt O95180); experiment: human CACNA1H calcium influx blockade – cell-based, synthetic library set 2, HEK293 HH8, Fluo-4, SAR follow-up (AID 493023); assay type: functional
Chain of Voltage-dependent T-type calcium channel subunit alpha-1H (O95180 whole entry): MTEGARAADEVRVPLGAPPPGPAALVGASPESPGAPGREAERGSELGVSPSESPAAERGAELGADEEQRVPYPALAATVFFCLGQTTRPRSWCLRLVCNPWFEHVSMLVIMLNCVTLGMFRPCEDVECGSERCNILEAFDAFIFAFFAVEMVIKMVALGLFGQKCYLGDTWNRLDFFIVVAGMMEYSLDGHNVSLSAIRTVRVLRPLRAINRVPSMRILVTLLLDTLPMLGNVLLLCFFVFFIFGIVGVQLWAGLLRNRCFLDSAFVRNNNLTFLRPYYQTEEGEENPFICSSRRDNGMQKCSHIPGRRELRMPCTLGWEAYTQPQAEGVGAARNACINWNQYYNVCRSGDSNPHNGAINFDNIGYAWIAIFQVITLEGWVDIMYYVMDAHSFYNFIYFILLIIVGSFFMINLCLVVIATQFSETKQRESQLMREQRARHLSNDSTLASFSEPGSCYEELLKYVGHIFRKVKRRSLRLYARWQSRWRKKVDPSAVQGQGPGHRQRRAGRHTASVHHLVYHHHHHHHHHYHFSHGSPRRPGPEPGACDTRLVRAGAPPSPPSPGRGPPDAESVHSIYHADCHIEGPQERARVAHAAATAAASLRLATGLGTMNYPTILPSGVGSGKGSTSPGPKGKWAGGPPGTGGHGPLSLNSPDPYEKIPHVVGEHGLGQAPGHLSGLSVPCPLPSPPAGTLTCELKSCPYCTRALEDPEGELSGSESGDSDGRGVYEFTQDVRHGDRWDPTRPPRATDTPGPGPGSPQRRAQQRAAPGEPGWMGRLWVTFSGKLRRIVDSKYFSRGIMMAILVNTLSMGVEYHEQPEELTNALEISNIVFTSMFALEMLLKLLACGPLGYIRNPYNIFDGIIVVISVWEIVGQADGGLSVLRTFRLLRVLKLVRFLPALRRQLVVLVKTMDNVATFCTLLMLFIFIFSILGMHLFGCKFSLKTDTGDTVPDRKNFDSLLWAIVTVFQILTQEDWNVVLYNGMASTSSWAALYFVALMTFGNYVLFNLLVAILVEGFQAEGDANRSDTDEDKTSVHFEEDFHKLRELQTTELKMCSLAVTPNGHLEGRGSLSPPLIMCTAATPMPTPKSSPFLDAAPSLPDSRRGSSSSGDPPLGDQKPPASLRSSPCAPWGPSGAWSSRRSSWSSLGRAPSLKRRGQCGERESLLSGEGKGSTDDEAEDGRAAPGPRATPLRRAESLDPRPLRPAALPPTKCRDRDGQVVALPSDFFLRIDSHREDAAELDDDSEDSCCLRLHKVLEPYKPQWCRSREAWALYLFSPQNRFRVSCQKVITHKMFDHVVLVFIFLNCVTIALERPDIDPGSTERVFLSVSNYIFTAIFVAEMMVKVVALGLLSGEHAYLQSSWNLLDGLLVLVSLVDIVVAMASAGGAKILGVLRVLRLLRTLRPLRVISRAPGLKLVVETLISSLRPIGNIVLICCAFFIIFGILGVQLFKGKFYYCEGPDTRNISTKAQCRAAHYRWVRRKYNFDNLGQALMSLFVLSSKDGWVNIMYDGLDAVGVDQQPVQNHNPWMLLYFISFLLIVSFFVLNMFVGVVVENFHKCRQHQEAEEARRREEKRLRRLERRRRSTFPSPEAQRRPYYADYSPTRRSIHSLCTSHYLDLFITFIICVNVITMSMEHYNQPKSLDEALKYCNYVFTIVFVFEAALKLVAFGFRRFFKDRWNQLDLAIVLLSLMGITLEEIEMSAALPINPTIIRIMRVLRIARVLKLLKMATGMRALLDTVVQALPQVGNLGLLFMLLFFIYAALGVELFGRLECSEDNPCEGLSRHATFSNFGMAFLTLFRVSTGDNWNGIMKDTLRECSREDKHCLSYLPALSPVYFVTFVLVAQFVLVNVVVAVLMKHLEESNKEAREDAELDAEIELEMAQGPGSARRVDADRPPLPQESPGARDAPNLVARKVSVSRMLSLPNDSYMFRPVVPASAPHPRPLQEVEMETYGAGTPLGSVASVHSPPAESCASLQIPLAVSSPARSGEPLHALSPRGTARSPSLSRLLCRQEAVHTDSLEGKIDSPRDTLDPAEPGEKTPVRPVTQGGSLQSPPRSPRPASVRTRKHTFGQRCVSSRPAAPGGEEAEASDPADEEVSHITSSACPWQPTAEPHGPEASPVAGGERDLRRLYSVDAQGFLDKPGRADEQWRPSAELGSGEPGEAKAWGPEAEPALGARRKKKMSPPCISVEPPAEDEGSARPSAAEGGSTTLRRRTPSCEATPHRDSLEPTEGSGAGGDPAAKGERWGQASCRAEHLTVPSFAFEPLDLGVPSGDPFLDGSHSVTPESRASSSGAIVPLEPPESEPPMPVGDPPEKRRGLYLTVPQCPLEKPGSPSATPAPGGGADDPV

[14] = test system: HEK293; experiment: cells; settings: Homo sapiens
[15] = target: Peroxisome proliferator-activated receptor gamma/Nuclear receptor coactivator 1 (Homo sapiens, UniProt P37231); assay type: functional;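 also: agonist potency as compounds enhance coactivator SRC-1 recruitment to PPARgamma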
[16] = target: T6, Hexokinase HKDC1 (Homo sapiens, UniProt Q2TB90); experiment: activation of HKDC1 glucose phosphorylation – biochemical, W721R variant, dose response (AID 504730); assay type: functional
T6 sequence (Q2TB90 whole entry): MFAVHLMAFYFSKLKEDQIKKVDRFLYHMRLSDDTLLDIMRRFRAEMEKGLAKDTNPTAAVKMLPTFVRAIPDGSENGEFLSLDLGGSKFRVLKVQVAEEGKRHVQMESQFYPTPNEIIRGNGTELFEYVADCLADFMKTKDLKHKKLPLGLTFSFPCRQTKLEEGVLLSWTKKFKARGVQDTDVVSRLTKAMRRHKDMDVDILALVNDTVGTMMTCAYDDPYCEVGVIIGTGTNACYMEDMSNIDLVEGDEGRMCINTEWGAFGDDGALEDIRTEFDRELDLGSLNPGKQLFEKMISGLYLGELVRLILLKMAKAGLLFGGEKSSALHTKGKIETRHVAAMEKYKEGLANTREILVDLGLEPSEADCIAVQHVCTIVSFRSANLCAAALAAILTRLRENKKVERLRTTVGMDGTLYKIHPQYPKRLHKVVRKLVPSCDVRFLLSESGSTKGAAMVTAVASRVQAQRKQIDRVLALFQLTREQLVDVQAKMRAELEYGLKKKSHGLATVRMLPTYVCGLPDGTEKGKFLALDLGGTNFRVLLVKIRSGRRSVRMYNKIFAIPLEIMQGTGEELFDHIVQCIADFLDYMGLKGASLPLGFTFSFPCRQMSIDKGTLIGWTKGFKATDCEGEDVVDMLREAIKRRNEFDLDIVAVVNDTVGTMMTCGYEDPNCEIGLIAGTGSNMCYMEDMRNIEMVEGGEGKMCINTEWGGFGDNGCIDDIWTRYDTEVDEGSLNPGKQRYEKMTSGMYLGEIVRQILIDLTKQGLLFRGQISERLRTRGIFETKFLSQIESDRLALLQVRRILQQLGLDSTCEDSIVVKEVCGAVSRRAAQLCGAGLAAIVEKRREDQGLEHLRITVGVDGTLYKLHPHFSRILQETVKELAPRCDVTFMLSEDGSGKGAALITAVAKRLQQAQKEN

[17] = Trypanosoma cruzi growth suppression in host cells – NIH3T3 host cells, beta-gal luminescence, confirmation (AID 2044); assay type: functional, cell-based;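 also: intracellular parasites grown in NIH/3T3 mouse fibroblasts as host cells; luminescent beta-galactosidase reporter signal from transgenic T. cruzi replicating inside host cells; inhibitors lower the luminescence signal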
[18] = target: T7, Heat shock factor protein 1 (Mus musculus, UniProt P38532); experiment: enhancement of HSF1-driven luciferase signal – cell-based, NIH3T3, luminescence, dose retest, confirmation (AID 435004); assay type: functional;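 also: stress induced by proteasome inhibitor MG132 added 30 min after compound; luciferase reporter driven by HSF1 response element in NIH3T3 cells; actives raise luminescence as potentiators of the MG132 stress response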
T7 sequence (P38532 whole entry): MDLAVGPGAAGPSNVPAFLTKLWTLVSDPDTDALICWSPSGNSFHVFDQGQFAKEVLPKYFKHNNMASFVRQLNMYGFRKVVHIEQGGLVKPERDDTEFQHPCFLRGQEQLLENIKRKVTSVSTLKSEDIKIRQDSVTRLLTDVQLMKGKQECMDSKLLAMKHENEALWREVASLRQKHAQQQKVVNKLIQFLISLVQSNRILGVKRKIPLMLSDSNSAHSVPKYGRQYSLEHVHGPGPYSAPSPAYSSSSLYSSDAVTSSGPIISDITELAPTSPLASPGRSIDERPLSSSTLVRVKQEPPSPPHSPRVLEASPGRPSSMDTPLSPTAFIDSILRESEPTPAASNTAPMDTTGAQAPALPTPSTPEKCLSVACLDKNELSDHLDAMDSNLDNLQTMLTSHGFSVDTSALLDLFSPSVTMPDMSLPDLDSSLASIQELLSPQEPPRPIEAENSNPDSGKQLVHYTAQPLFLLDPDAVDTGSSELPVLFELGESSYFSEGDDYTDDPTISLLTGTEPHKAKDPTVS

[19] = target: Hexokinase-1 (Homo sapiens, UniProt P19367); experiment: HK1 enzyme activation by HKDC1 hits – biochemical, selectivity assay for HKDC1 activator project, dose response (AID 504762); assay type: functional
Chain of Hexokinase-1 (P19367 whole entry): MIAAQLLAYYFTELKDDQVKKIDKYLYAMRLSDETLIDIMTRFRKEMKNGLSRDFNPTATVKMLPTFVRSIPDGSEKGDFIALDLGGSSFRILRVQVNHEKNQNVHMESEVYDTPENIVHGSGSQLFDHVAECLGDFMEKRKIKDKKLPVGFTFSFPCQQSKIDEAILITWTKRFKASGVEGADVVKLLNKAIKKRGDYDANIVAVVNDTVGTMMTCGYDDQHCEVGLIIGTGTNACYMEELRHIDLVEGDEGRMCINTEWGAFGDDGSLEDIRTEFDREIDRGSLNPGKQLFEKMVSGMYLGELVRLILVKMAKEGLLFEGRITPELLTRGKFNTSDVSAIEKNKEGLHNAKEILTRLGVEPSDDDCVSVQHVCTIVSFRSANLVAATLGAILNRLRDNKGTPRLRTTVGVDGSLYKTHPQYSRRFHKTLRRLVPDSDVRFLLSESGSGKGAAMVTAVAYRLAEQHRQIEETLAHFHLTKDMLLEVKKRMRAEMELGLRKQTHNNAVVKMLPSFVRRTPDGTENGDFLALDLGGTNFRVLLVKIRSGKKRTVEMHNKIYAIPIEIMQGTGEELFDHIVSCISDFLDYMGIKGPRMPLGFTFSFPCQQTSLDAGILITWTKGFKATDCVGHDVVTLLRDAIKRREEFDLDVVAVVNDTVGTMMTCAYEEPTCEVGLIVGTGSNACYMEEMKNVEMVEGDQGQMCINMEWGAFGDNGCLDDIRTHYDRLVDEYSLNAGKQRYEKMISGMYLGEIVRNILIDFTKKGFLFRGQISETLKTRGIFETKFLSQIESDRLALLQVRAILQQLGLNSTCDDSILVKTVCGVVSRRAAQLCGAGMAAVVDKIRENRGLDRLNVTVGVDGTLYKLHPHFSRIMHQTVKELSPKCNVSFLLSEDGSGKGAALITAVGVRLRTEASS

[20] = target: Peroxisome proliferator-activated receptor gamma/Nuclear receptor coactivator 2 (Homo sapiens, UniProt P37231); assay type: functional;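 also: agonist potency for raising coactivator recruitment to the receptor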
[21] = test system: HEK293; experiment: cells; settings: Homo sapiens; remark: listed apart in the source
[22] = target: Peroxisome proliferator-activated receptor gamma/Nuclear receptor coactivator 3 (Homo sapiens, UniProt P37231); assay type: functional;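 also: agonist potency for raising coactivator recruitment to the receptor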

Chain of Genome polyprotein (P29990 2492-3391 limits assumed): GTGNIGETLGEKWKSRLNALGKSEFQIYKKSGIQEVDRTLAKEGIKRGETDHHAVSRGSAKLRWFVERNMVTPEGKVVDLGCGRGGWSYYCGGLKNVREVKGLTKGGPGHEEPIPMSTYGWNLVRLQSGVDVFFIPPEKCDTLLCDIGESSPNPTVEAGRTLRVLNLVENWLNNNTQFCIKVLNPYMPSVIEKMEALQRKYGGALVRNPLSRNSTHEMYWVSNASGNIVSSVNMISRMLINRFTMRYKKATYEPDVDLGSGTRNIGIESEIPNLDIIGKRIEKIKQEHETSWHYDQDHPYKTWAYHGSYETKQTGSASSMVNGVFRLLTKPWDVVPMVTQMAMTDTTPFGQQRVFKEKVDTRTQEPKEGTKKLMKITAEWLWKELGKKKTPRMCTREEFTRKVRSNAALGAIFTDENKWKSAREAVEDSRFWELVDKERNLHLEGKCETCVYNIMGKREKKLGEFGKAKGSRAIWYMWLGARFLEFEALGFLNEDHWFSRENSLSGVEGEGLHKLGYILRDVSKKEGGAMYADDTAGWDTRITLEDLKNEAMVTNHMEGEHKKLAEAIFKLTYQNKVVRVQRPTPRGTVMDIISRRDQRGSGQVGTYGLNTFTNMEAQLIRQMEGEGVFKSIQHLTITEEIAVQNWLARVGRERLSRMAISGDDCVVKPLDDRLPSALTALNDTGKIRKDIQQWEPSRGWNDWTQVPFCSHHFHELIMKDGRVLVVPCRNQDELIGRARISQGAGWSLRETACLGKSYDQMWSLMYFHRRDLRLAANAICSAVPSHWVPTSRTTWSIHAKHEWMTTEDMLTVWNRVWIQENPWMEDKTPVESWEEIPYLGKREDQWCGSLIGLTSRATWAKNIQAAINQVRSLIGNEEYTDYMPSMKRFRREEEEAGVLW

## Cc1ccc(CS(=O)(=O)c2ncc(Cl)c(C(=O)Nc3nnc(C(C)C)s3)n2)cc1
[1]
  IC50: > 100 µM (active)
[2]
  AC50: 2.95 µM (active)
[3]
  IC50: 3.27 µM (active)
[4]
  EC50: 0.717 µM (active)
[5]
  AC50: 1.52 µM (active)
[6]
  IC50: > 20 µM (inactive)
[7]
  CC50: 28.3 µM (active)
[8]
  CC50: 29.1 µM (active)
[9]
  IC50: > 20 µM (inactive)
[10]
  AC50: 4.07 µM (active)
[11]
  IC50: 10.7 µM (active)

## COC(=O)[C@H](C)NC(=O)NC(C)CCc1ccccc1 (some centres not stated)
[12]
  IC50: > 50 µM (inactive)

## O=C(NC1CCC2CN(Cc3ccccc3)CC21)c1ccc(Cl)cc1Cl (configuration not stated)
[13]
  EC50: 10 µM (active)

## O=C(CSc1cccc2cccnc12)N/N=C/c1cccnc1
[14]
  EC50: > 59.6 µM (inactive)
[15]
  EC50: > 79.4 µM (not active)
[16]
  EC50: 27.6 µM (inactive)
[17]
  EC50: 0.579 µM (active)
[18]
  EC50: 6.99 µM (active)
[19]
  EC50: > 80 µM (inactive)
[20]
  EC50: > 79.4 µM (not active)
[21]
  EC50: > 59.6 µM (inactive)
[22]
  EC50: > 79.4 µM (not active)
